Results reported in ChEMBL document CHEMBL1201862, “PubChem BioAssay data set” (2004).
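Tested at 5 concentrations; 48 h exposure; 96-well plates; endpoints linearly interpolated, else capped at highest concentration. GI50 = concentration required for 50% inhibition of growth.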 Active and inactive are the calls of the source. No stated cut-off is given here; in the data, active = GI50 up to about 1.1 µM and inactive = higher.

How the values were obtained:
Test in all cases: DTP human tumour cell line panel, 48 h
HOP-92 = system: HOP-92
RPMI-8226 = system: RPMI-8226
Malme-3M = system: Malme-3M
MOLT-4 = system: MOLT-4
HL-60 = system: HL-60
MDA-MB-231 = system: MDA-MB-231
HCC 2998 = system: HCC 2998
PC-3 = system: PC-3
UO-31 = system: UO-31
CCRF-CEM = system: CCRF-CEM
UACC-257 = system: UACC-257
A549 = system: A549
COLO 205 = system: COLO 205
MDA-MB-435 = system: MDA-MB-435
OVCAR-5 = system: OVCAR-5
OVCAR-3 = system: OVCAR-3
SNB-75 = system: SNB-75
TK-10 = system: TK-10
KM12 = system: KM12
Hs-578T = system: Hs-578T

Measured: GI50

CCOC(=O)C(O)(NC(=O)c1ccccc1F)C(F)(F)F (centres undefined)
inactive: HOP-92 > 100 µM | RPMI-8226 > 100 µM | Malme-3M > 100 µM | MOLT-4 > 100 µM | HL-60 > 100 µM | MDA-MB-231 2.69 µM | HCC 2998 > 100 µM | PC-3 > 100 µM | UO-31 > 100 µM | CCRF-CEM > 100 µM | UACC-257 > 100 µM | A549 > 100 µM | COLO 205 > 100 µM | MDA-MB-435 > 100 µM | OVCAR-5 > 100 µM | OVCAR-3 > 100 µM | SNB-75 > 100 µM | TK-10 > 100 µM | KM12 > 100 µM | Hs-578T > 100 µM

CNC(=O)OCC1=C(COC(=O)NC)CN(c2ccc(OC)cc2)C1
inactive: HOP-92 > 100 µM | RPMI-8226 > 100 µM | Malme-3M > 100 µM | MOLT-4 > 100 µM | HL-60 > 100 µM | MDA-MB-231 > 100 µM | HCC 2998 > 100 µM | PC-3 > 100 µM | UO-31 80.9 µM | CCRF-CEM > 100 µM | UACC-257 > 100 µM | A549 > 100 µM | COLO 205 > 100 µM | MDA-MB-435 > 100 µM | OVCAR-5 > 100 µM | OVCAR-3 > 100 µM | SNB-75 > 100 µM | TK-10 85.7 µM | KM12 > 100 µM | Hs-578T > 100 µM

O=Nn1c2ccccc2c2cc([N+](=O)[O-])ccc21
inactive: HOP-92 14.3 µM | RPMI-8226 13.3 µM | Malme-3M 12.9 µM | MOLT-4 14.1 µM | HL-60 > 100 µM | MDA-MB-231 18.9 µM | HCC 2998 33 µM | PC-3 18.4 µM | UO-31 22.4 µM | CCRF-CEM 14.3 µM | UACC-257 22.9 µM | A549 19.9 µM | COLO 205 34.3 µM | MDA-MB-435 17.1 µM | OVCAR-5 16.5 µM | OVCAR-3 17.9 µM | SNB-75 7.23 µM | TK-10 15.4 µM | KM12 17.5 µM | Hs-578T 31.7 µM

COc1ccc2c(C)cc(N/N=C(\C)C=O)nc2c1
inactive: HOP-92 10.5 µM | RPMI-8226 6.31 µM | Malme-3M 12 µM | MOLT-4 4.51 µM | MDA-MB-231 9.33 µM | HCC 2998 11.9 µM | PC-3 9.2 µM | UO-31 13.2 µM | CCRF-CEM 1.82 µM | UACC-257 15.8 µM | A549 18.5 µM | COLO 205 13.8 µM | MDA-MB-435 10.8 µM | OVCAR-5 13 µM | OVCAR-3 2.25 µM | SNB-75 13.6 µM | TK-10 15.7 µM | KM12 12.3 µM | Hs-578T 15.5 µM
